Tested on: type V collagen in the ECM
Experiment: Influence of the lysis solution on the assay of type V collagen in the ECM
Type: cell-based, human
Settings: for Ratio: Coll/DNA % (20 mM = 100.00): Table 3.3
Experimental: Thus, normal human fibroblasts obtained from abdominal biopsies were seeded in a 96-well plate and cultured in a defined medium (FGM) to 100% confluency.
After 48 hours of culture postconfluency at 37° C. under 0.5% CO2, the culture medium was collected.
The time of application of the lysis solution tested was 10 minutes at room temperature and with stirring.
The collagen V in the ECM was assayed directly on the ECM by using an anticollagen V antibody. A secondary antibody conjugated to europium was used with a detection reagent and the fluorescence was measured. (Delfia® kit—Perkin Elmer).
The experiment was repeated and the lysis solutions tested were as follows: • solution according to the invention NH4OH: 110 μl of an ammonium hydroxide solution at concentrations between 200 μM and 2 M. • Solution of monoethylamine at 20 Mm • Solution of diethylamine at 20 mM • Solution of triethylamine at 20 mM

N [NH4OH, ammonium hydroxide]
Ratio: Coll/DNA % (20 mM = 100.00) (NH4OH 200 μM): 117.43%
Ratio: Coll/DNA % (20 mM = 100.00) (NH4OH 2 mM): 131.56%
Ratio: Coll/DNA % (20 mM = 100.00) (NH4OH 20 mM): 100.00%
Ratio: Coll/DNA % (20 mM = 100.00) (NH4OH 200 mM): 86.47%
Ratio: Coll/DNA % (20 mM = 100.00) (NH4OH 2M): 67.67%
Ratio: Coll/DNA % (NH4OH = 100) (repeat experiment, Table 3.2): 100%
